The record followed here is patent publication US9212168B2 (priority 2011, dated 2015).

The first experiment deals with HCV genotype 1a replicon. The experiment is described as follows: HCV genotype 1a replicon assay (NS3 protease activity readout). The class given is cell-based, hepatitis C virus. The following applies: HCV genotype 1a replicon. An outline of the steps:
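Genotype 1a subgenomic replicon cells (APC89, Huh7.5) were treated with compound dose-responses in G418-free medium, 0.5% DMSO final, for 48 or 72 hours at 37° C. Lysate NS3/4a protease activity measured with 15 μM FRET substrate, 20 min at 37° C (ex 340/em 509 nm); EC50 by 4-parameter fit.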
In the case of `CCCCOC(=O)N[C@H](C(=O)N1C[C@@H](C)C[C@H]1c1nc(-c2ccc(-c3cc(Cl)c(NC(=O)c4ccc(N5C[C@H](C)N(C(=O)NC)C[C@H]5C)nc4)cc3OC(F)(F)F)cc2)c[nH]1)C(C)C` [Example 7-4], the “Genotype 1a” value is “B (B represents pEC50 between 8 and 9 (EC50 between 1 and 10 nM))”.
Still for that read-out and setting: the value for `COC(=O)N[C@H](C(=O)N1C[C@@H](OC)C[C@H]1c1nc(-c2ccc(-c3ccc(NC(=O)c4ccc(N5CCN(C(=O)C(C)(C)CO)C[C@H]5C)nc4)cc3OC(F)(F)F)cc2)c[nH]1)C1CCOCC1` [Example 28-4] was “D (D represents pEC50>10 (EC50<0.1 nM))”.
As to `CNC(=O)N1C[C@@H](C)N(c2ccc(C(=O)Nc3cc(OC(F)(F)F)c(-c4ccc(-c5c[nH]c([C@@H]6C[C@H](C)CN6C(=O)[C@H](NC(=O)OC)C(C)(C)C)n5)cc4)cc3Cl)cn2)C[C@@H]1C` [Example 7-2], the “Genotype 1a” value was “A (A represents a pEC50 value between 6 and 8 (EC50 between 1 μM and 10 nM))”.
The same measure, in the same setting: the value for `COC(=O)N[C@H](C(=O)N1C[C@@H](O)C[C@H]1c1nc(-c2ccc(-c3ccc(NC(=O)c4ccc(N5CCN(C(=O)c6c[nH]cn6)C[C@H]5C)nc4)cc3)cc2)c[nH]1)C(C)C` [Example 26-2] was “B (B represents pEC50 between 8 and 9 (EC50 between 1 and 10 nM))”; that for `CCCCC(=O)N1CCN(c2ccc(C(=O)Nc3cc(OC(F)(F)F)c(-c4ccc(-c5c[nH]c([C@@H]6C[C@H](C)CN6C(=O)[C@@H](NC(=O)OC)C(C)C)n5)cc4)cc3Cl)cn2)[C@H](C)C1` [Example 1-71] was “C (C represents pEC50 between and 9 and about 10, (EC50 between 1 nM and 0.1 nM))”; that for `CNC(=O)N1CCC[C@@]1(C)C(=O)N1C[C@@H](C)N(c2ccc(C(=O)Nc3cc(OC(F)(F)F)c(-c4ccc(-c5c[nH]c([C@@H]6C[C@H](C)CN6C(=O)[C@@H](NC(=O)OC)C(C)C)n5)cc4)cc3F)cn2)C[C@@H]1C` [Example 1-24] was “D (D represents pEC50>10 (EC50<0.1 nM))”.
On the same count and under the same terms, under `COC(=O)N[C@H](C(=O)N1C[C@@H](O)C[C@H]1c1nc(-c2ccc(-c3cc(Cl)c(NC(=O)c4ccc(N5CCN(C(=O)C(C)(C)C)C[C@H]5C)nc4)cc3OC(F)(F)F)cc2)c[nH]1)C1CCOCC1` [Example 26-10] stands “A (A represents a pEC50 value between 6 and 8 (EC50 between 1 μM and 10 nM))”; under `COC(=O)N[C@H](C(=O)N1C[C@@H](C)C[C@H]1c1nc(-c2ccc(-c3cc(F)c(NC(=O)c4ccc(N5C[C@H](C)N(C(=O)c6c[nH]cn6)C[C@H]5C)nc4)cc3C(F)(F)F)cc2)c[nH]1)C(C)C` [Example 1-21], “D (D represents pEC50>10 (EC50<0.1 nM))”; under `COC(=O)N[C@H](C(=O)N1C[C@@H](C)C[C@H]1c1nc(-c2ccc(-c3cc(F)c(NC(=O)c4ccc(N5CCN(C(=O)C(C)(C)C)C[C@H]5C)nc4)cc3C(F)(F)F)cc2)c[nH]1)C(C)C` [Example 1-58], “D (D represents pEC50>10 (EC50<0.1 nM))”.
The same measure, in the same setting: under `COC(=O)NC(C(=O)N1C[C@@H](C)C[C@H]1c1nc(-c2ccc(-c3c(F)cc(NC(=O)c4ccc(N5CCN(C(=O)C(C)(C)C)C[C@H]5C)nc4)cc3F)cc2)c[nH]1)C1CCCCC1` (stereo partly drawn) [Example 21-1] stands “A (A represents a pEC50 value between 6 and 8 (EC50 between 1 μM and 10 nM))”; under `COC(=O)N[C@H](C(=O)N1C[C@@H](C)C[C@H]1c1nc(-c2ccc(-c3cc(Cl)c(NC(=O)c4ccc(N5CCN(C(=O)[C@H]6CCCN6S(C)(=O)=O)C[C@H]5C)nc4)cc3OC(F)(F)F)cc2)c[nH]1)C(C)C` [Example 1-39], “D (D represents pEC50>10 (EC50<0.1 nM))”; under `COC(=O)N[C@H](C(=O)N1C[C@@H](O)C[C@H]1c1nc(-c2ccc(-c3cc(F)c(NC(=O)c4ccc(N5CCN(C(=O)C(C)(C)C)C[C@H]5C)nc4)cc3OC(F)(F)F)cc2)c[nH]1)C(C)C` [Example 26-6], “C (C represents pEC50 between and 9 and about 10, (EC50 between 1 nM and 0.1 nM))”.
Regarding `COC(=O)NC(C(=O)N1CC(OC)CC1c1nc(-c2ccc(-c3cc(Cl)c(NC(=O)c4ccc(N5CCN(C(=O)C(C)(C)CO)CC5C)nc4)cc3OC(F)(F)F)cc2)c[nH]1)C(C)(C)O` (stereo not drawn) [Example 16-9], the “Genotype 1a” value is “D (D represents pEC50>10 (EC50<0.1 nM))”.
Still for that read-out and setting: the value for `COC(=O)N[C@H](C(=O)N1C[C@@H](C)C[C@H]1c1nc(-c2ccc(-c3cc(F)c(C(=O)Nc4ccc(N5CCN(C(=O)[C@H]6CC6(C)C)C[C@H]5C)nc4)cc3OC(F)(F)F)cc2)c(Cl)[nH]1)C(C)C` [Example 4-44] was “D (D represents pEC50>10 (EC50<0.1 nM))”; that for `[2H]C([2H])([2H])C1(C([2H])([2H])[2H])CC1C(=O)N1CCN(c2ccc(C(=O)Nc3cc(Cl)c(-c4ccc(-c5c[nH]c([C@@H]6C[C@H](C)CN6C(=O)[C@@H](NC(=O)OC)C(C)C)n5)cc4)cc3F)cn2)[C@H](C)C1` (stereo partly drawn) [Example 1-100] was “D (D represents pEC50>10 (EC50<0.1 nM))”.
The same measure, in the same setting: under `COC(=O)NC(C(=O)N1CC(F)CC1c1nc(-c2ccc(-c3cc(Cl)c(NC(=O)c4ccc(N5CCN(C(=O)C(C)(C)CO)CC5C)nc4)cc3OC(F)(F)F)cc2)c[nH]1)C(C)C` (stereo not drawn) [Example 29-3] stands “C (C represents pEC50 between and 9 and about 10, (EC50 between 1 nM and 0.1 nM))”; under `COC(=O)NC(C(=O)N1CC(C)CC1c1nc(-c2ccc(-c3cc(F)c(NC(=O)c4ccc(N5CCN(C(=O)C6CC6(Cl)Cl)CC5C)nc4)cc3Cl)cc2)c[nH]1)C(C)C` (mixture of isomers) [Example 1-77], “D (D represents pEC50>10 (EC50<0.1 nM))”; under `COC(=O)N[C@H](C(=O)N1C[C@@H](C)C[C@H]1c1nc(-c2ccc(-c3ccc(C(=O)Nc4ccc(N5C[C@H](C)N(C(=O)NC6CC6)C[C@H]5C)nc4)cc3OC(F)(F)F)cc2)c[nH]1)C(C)C` [Example 4-24], “C (C represents pEC50 between and 9 and about 10, (EC50 between 1 nM and 0.1 nM))”.
The same measure, in the same setting: the value for `CNC(=O)N1CCC[C@@H]1C(=O)N1CCN(c2ccc(C(=O)Nc3cc(OC(F)(F)F)c(-c4ccc(-c5c[nH]c([C@@H]6C[C@H](C)CN6C(=O)[C@@H](NC(=O)OC)C(C)C)n5)cc4)cc3Cl)cn2)[C@H](C)C1` [Example 1-38] was “D (D represents pEC50>10 (EC50<0.1 nM))”.

The experiment is the same for the next values; noted with them: Hepatitis C virus, read-out: Genotype 1a, HCV genotype 1a replicon.
In the case of `COC(=O)N[C@H](C(=O)N1C[C@@H](C)C[C@H]1c1nc(-c2ccc(-c3cc(Cl)c(NC(=O)c4ccc(N5CCN(C(=O)NN6CCOCC6)C[C@H]5C)nc4)cc3OC(F)(F)F)cc2)c[nH]1)C(C)C` [Example 12-18], the EC50 was below 0.1 nM.
Consider `COC(=O)N[C@H](C(=O)N1CC(C)(C)C[C@H]1c1nc(-c2ccc(-c3cc(F)c(NC(=O)c4ccc(N5CCN(C(=O)C6CC6)C[C@H]5C)nc4)cc3C(F)(F)F)cc2)c[nH]1)C(C)C` [Example 3-3], for which the EC50 is 0.1 to 1 nM.
As to `COC(=O)N[C@H](C(=O)N1C[C@@H](C)C[C@H]1c1nc(-c2ccc(-c3cc(Cl)c(NC(=O)c4ccc(N5CCN(C(=O)C(C)(C)C)C[C@H]5C)nc4)cc3OC(F)(F)F)cc2)c[nH]1)C1CCCCC1` [Example 13-39], the EC50 fell in the range of 1 to 10 nM.
Still for that read-out and setting: under `COC(=O)N[C@H](C(=O)N1C[C@@H](C)C[C@H]1c1nc(-c2ccc(-c3cc(Cl)c(NC(=O)c4ccc(N5CCN(C(=O)C6(N(C)C)CC6)C[C@H]5C)nc4)cc3OC(F)(F)F)cc2)c[nH]1)C(C)C` [Example 12-10] stands below 0.1 nM.
Still for that read-out and setting: the value for `COC(=O)N[C@H](C(=O)N1C[C@@H](C)C[C@H]1c1nc(-c2ccc(-c3cc(Cl)c(NC(=O)c4ccc(N5CCN(C(=O)N(CCO)CCO)C[C@H]5C)nc4)cc3OC(F)(F)F)cc2)c[nH]1)C(C)C` [Example 12-16] was 0.1 to 1 nM; that for `COC(=O)N[C@H](C(=O)N1[C@@H]2C[C@@H]2C[C@H]1c1nc(-c2ccc(-c3cc(Cl)c(NC(=O)c4ccc(N5CCN(C(=O)C6CC67CC7)C[C@H]5C)nc4)cc3C(F)(F)F)cc2)c[nH]1)C(C)C` (stereo partly drawn) [Example 8-6] was 0.1 to 1 nM; that for `COC(=O)N[C@H](C(=O)N1C[C@@H](C)C[C@H]1c1nc(-c2ccc(-c3cc(Cl)c(NC(=O)c4ccc(N5CCN(C(=O)C6CCO6)C[C@H]5C)nc4)cc3OC(F)(F)F)cc2)c[nH]1)C(C)C` (stereo partly drawn) [Example 12-49] was below 0.1 nM.
In the case of `COC(=O)N[C@@H](CSC)C(=O)N1C[C@@H](C)C[C@H]1c1nc(-c2ccc(-c3cc(Cl)c(NC(=O)c4ccc(N5CCN(C(=O)C(C)(C)C)C[C@H]5C)nc4)cc3OC(F)(F)F)cc2)c[nH]1` [Example 13-7], the EC50 is below 0.1 nM.
In the case of `CC(C)[C@@H](C(=O)N1C[C@@H](C)C[C@H]1c1nc(-c2ccc(-c3cc(Cl)c(NC(=O)c4ccc(N5CCN(C(=O)C(C)(C)C)C[C@H]5C)nc4)cc3OC(F)(F)F)cc2)c[nH]1)N1CCCCC1` [Example 13-2], the EC50 lay in the range of 10 to 1000 nM.
Consider `COC(=O)N[C@H](C(=O)N1[C@@H]2C[C@@H]2C[C@H]1c1nc(-c2ccc(-c3cc(Cl)c(NC(=O)c4ccc(N5CCN(C(=O)C6CC6)C[C@H]5C)nc4)cc3C(F)(F)F)cc2)c[nH]1)C(C)C` [Example 8-3], for which the EC50 was 0.1 to 1 nM.
For the molecule `COC(=O)N[C@H](C(=O)N1C[C@@H](C)C[C@H]1c1nc(-c2ccc(-c3cc(Cl)c(NC(=O)c4ccc(N5CCN(C(=O)C(C)(C)CNC(=O)C6CC6)C[C@H]5C)nc4)cc3OC(F)(F)F)cc2)c[nH]1)C(C)C` [Example 12-37], the EC50 lay within 0.1 to 1 nM.
Still for that read-out and setting: under `COC(=O)N[C@@H](CCCCN)C(=O)N1C[C@@H](C)C[C@H]1c1nc(-c2ccc(-c3cc(Cl)c(NC(=O)c4ccc(N5CCN(C(=O)C(C)(C)C)C[C@H]5C)nc4)cc3OC(F)(F)F)cc2)c[nH]1` [Example 13-33] stands below 0.1 nM.
`COC(=O)NC(C(=O)N1C[C@@H](C)C[C@H]1c1nc(-c2ccc(-c3cc(Cl)c(C(=O)Nc4ccc(N5CCN(C(=O)C(C)(C)C)C[C@H]5C)nc4)cc3OC(F)(F)F)cc2)c[nH]1)C1CCCCC1` (stereo partly drawn) [Example 23-3]: the EC50 fell in the range of 0.1 to 1 nM.
The same measure, in the same setting: under `COC(=O)N[C@H](C(=O)N1C[C@@H](N2CCOCC2)C[C@H]1c1nc(-c2ccc(-c3cc(Cl)c(NC(=O)c4ccc(N5CCN(C(=O)C(C)(C)C)C[C@H]5C)nc4)cc3OC(F)(F)F)cc2)c[nH]1)C(C)C` [Example 15-5] stands below 0.1 nM.
